Measurements as given in patent US11155517B2, “4-substituted phenylamine derivatives and their use to protect crops by fighting undesired phytopathogenic micoorganisms” (PI INDUSTRIES LTD., priority 2016, dated 2021).
Where a name gives a salt, the structure may show the parent alone.

Columns and labels:
Type in all cases: cell-based
[1] = test system: Alternaria solani; experiment: Alternaria solani (early blight of tomato/potato) in vitro test, radial growth on Potato Dextrose Agar; conditions: 168 h, 300 ppm, seven days, 25° C., read-out: % control compared to the untreated check (radial growth)
[2] = test system: Pyricularia oryzae; experiment: microbe, parasite or virus in culture; conditions: 168 h, read-out: % control compared to the untreated check (radial growth)
[3] = test system: Botrytis cinerea; experiment: Botrytis cinerea (gray mold) in vitro test, radial growth on Potato Dextrose Agar; conditions: 168 h, 300 ppm, seven days, 22° C., read-out: % (control) compared to the untreated check (radial growth)
[4] = test system: Rhizoctonia solani; experiment: Rhizoctonia solani (rice sheath blight/potato black scurf) in vitro test, radial growth on Potato Dextrose Agar; conditions: 168 h, 300 ppm, seven days, 25° C., read-out: % control compared to the untreated check (radial growth)

Compound	inhibition of growth at 300 ppm [1] [%]	inhibition of growth at 300 ppm [2] [%]	inhibition of growth at 300 ppm [3] [%]	inhibition of growth at 300 ppm [4] [%]
CCN(C)C=Nc1cc(C)c(Cc2cc(C(F)(F)F)cc(Cl)c2F)cc1Cl [Compound 126, N′-(2-chloro-4-(3-chloro-2-fluoro-5-(trifluoromethyl)benzyl)-5-methylphenyl)-N-ethyl-N-methylformimidamide]	> 75	> 75	–	–
CCN(C)C=Nc1cc(Cl)c(Cc2cccc(Cl)c2)cc1Cl [Compound 152, N′-(2,5-dichloro-4-(3-chlorobenzyl)phenyl)-N-ethyl-N-methylformimidamide]	> 75	> 75	> 80	> 80
COC=Nc1c(C)cc(Cc2ccc(Br)cc2)c(C)c1Br [Compound 217, methyl N-(2-bromo-4-(4-bromobenzyl)-3,6-dimethylphenyl)formimidate]	–	–	> 80	–
CCN(C)C=Nc1cc(C(F)(F)F)c(Cc2cccc(F)c2)cc1F [Compound 230, N-ethyl-N′-(2-fluoro-4-(3-fluorobenzyl)-5-(trifluoromethyl)phenyl)-N-methylformimidamide]	> 75	> 75	> 80	> 80
CCN(C)C=Nc1cc(Cl)c(Cc2cccc(OC(F)(F)F)c2)cc1Cl [Compound 182, N′-(2,5-dichloro-4-(3-(trifluoromethoxy)benzyl)phenyl)-N-ethyl-N-methylformimidamide]	> 75	> 75	> 80	> 80
CCN(C)C=Nc1cc(C)c(C(C#N)c2ccc(F)c(Cl)c2)cc1Cl (stereo not shown) [Compound 190, N′-(2-chloro-4-((3-chloro-4-fluorophenyl)(cyano)methyl)-5-methylphenyl)-N-ethyl-N-methylformimidamide]	–	> 75	> 80	–
Cc1cc(N=CNC#N)c(C)cc1Cc1ccccc1Cl [Compound 65, N′-(4-(2-chlorobenzyl)-2,5-dimethylphenyl)-N-cyanoformimidamide]	–	–	> 80	–
CCN(C)C=Nc1cc(C#N)c(Cc2ccccc2F)cc1C [Compound 247, N′-(5-cyano-4-(2-fluorobenzyl)-2-methylphenyl)-N-ethyl-N-methylformimidamide]	> 75	> 75	> 80	> 80
C=C(c1ccc(Br)cc1)c1cc(C)c(N=CN(C)CC)cc1Cl [Compound 238, N′-(4-(1-(4-bromophenyl)vinyl)-5-chloro-2-methylphenyl)-N-ethyl-N-methylformimidamide]	> 75	> 75	> 80	–
CCN(C)C=Nc1cc(C)c(C(C#N)c2ccc(Cl)cc2)cc1Cl (stereo not shown) [Compound 193, N′-(2-chloro-4-((4-chlorophenyl)(cyano)methyl)-5-methylphenyl)-N-ethyl-N-methylformimidamide]	–	> 75	> 80	> 80
CCN(C)C=Nc1cc(C(F)(F)F)c(Cc2cccc(C)c2)cc1F [Compound 231, N-ethyl-N′-(2-fluoro-4-(3-methylbenzyl)-5-(trifluoromethyl)phenyl)-N-methylformimidamide]	> 75	> 75	–	> 80
CCN(C)C=Nc1cc(C(F)(F)F)c(Cc2ccccc2Cl)cc1F [Compound 226, N′-(4-(2-chlorobenzyl)-2-fluoro-5-(trifluoromethyl)phenyl)-N-ethyl-N-methylformimidamide]	> 75	> 75	–	> 80
CCN(C)C=Nc1cc(F)c(Cc2ccccc2F)cc1F [Compound 242, N′-(2,5-difluoro-4-(2-fluorobenzyl)phenyl)-N-ethyl-N-methylformimidamide]	> 75	> 75	> 80	–
CCN(C)C=Nc1cc(C)c(Cc2cccc(Cl)c2)cc1S(C)(=O)=O [Compound 218, N′-(4-(3-chlorobenzyl)-5-methyl-2-(methylsulfonyl)phenyl)-N-ethyl-N-methylformimidamide]	> 75	–	–	–
CCN(C)C=Nc1cc(C(F)(F)F)c(Cc2cccc(OC(F)(F)F)c2)cc1F [Compound 233, N-ethyl-N′-(2-fluoro-4-(3-(trifluoromethoxy)benzyl)-5-(trifluoromethyl)phenyl)-N-methylformimidamide]	> 75	> 75	> 80	–
CCN(C)C=Nc1cc(Cl)c(Cc2ccccc2Cl)cc1Cl [Compound 150, N′-(2,5-dichloro-4-(2-chlorobenzyl)phenyl)-N-ethyl-N-methylformimidamide]	> 75	> 75	–	–
CCN(C)C=Nc1cc(Cl)c(Cc2ccc(C)cc2)cc1Cl [Compound 147, N′-(2,5-dichloro-4-(4-methylbenzyl)phenyl)-N-ethyl-N-methylformimidamide]	> 75	–	–	> 80

Compound	inhibition of growth at 300 ppm [1] [%]	inhibition of growth at 300 ppm [2] [%]	inhibition of growth at 300 ppm [3] [%]	inhibition of growth at 300 ppm [4] [%]
CCN(C)C=Nc1cc(C(F)(F)F)c(Cc2cccc(F)c2)cc1C1CC1 [Compound 266, N′-(2-cyclopropyl-4-(3-fluorobenzyl)-5-(trifluoromethyl)phenyl)-N-ethyl-N-methylformimidamide]	> 75	> 75	> 80	–
Cc1cc(N=CN2CCOCC2)c(Cl)cc1Cc1cccc(F)c1 [Compound 38, N-(2-chloro-4-(3-fluorobenzyl)-5-methylphenyl)-1-morpholinomethanimine]	–	> 75	–	–
CCN(C)C=Nc1cc(Cl)c(C(C(=O)OC)c2cccc(Cl)c2)cc1C (stereo not shown) [Compound 237, methyl 2-(2-chloro-4-(((ethyl(methyl)amino)methylene)amino)-5-methylphenyl)-2-(3-chlorophenyl)acetate]	> 75	> 75	–	–
CCN(C)C=Nc1cc(C)c(C(C#N)c2cccc(F)c2)cc1Cl (stereo not shown) [Compound 194, N′-(2-chloro-4-(cyano(3-fluorophenyl)methyl)-5-methylphenyl)-N-ethyl-N-methylformimidamide]	–	> 75	–	–
CON(C)C=Nc1cc(C)c(Cc2ccccc2F)cc1C [Compound 61, N′-(4-(2-fluorobenzyl)-2,5-dimethylphenyl)-N-methoxy-N-methylformimidamide]	> 75	> 75	–	> 80
CCN(C)C=Nc1cc(C)c(C(C#N)c2ccc(C)cc2)cc1Cl (stereo not shown) [Compound 191, N′-(2-chloro-4-(cyano(p-tolyl)methyl)-5-methylphenyl)-N-ethyl-N-methylformimidamide]	–	–	> 80	> 80
CCN(C)C=Nc1cc(C)c(Cc2ccc(C)cc2)cc1S(C)(=O)=O [Compound 235, N-ethyl-N-methyl-N′-(5-methyl-4-(4-methylbenzyl)-2-(methylsulfonyl)phenyl)formimidamide]	–	–	> 80	–
CCN(C)C=Nc1cc(C)c(Cc2ccccc2C)cc1S(C)(=O)=O [Compound 234, N-ethyl-N-methyl-N′-(5-methyl-4-(2-methylbenzyl)-2-(methylsulfonyl)phenyl)formimidamide]	> 75	> 75	> 80	–
CCN(C)C=Nc1c(C)cc(Cc2ccccc2C)c(C)c1Br [Compound 219, N′-(2-bromo-3,6-dimethyl-4-(2-methylbenzyl)phenyl)-N-ethyl-N-methylformimidamide]	> 75	> 75	> 80	–
CCN(C)C=Nc1cc(C(F)(F)F)c(Cc2ccccc2F)cc1F [Compound 227, N-ethyl-N′-(2-fluoro-4-(2-fluorobenzyl)-5-(trifluoromethyl)phenyl)-N-methylformimidamide]	> 75	> 75	–	> 80
CCN(C)C=Nc1cc(C)c(C(C#N)c2cccc(C(F)(F)F)c2)cc1Cl (stereo not shown) [Compound 188, N′-(2-chloro-4-(cyano(3-(trifluoromethyl)phenyl)methyl)-5-methylphenyl)-N-ethyl-N-methylformimidamide]	–	> 75	> 80	–
CCN(C)C=Nc1cc(C)c(Cc2ccccn2)cc1C [Compound 202, N′-(2,5-dimethyl-4-(pyridin-2-ylmethyl)phenyl)-N-ethyl-N-methylformimidamide]	> 75	> 75	–	–
CCN(C)C=Nc1c(C)cc(C(F)(F)c2ccccc2)c(C)c1I [Compound 73, N′-(4-(difluoro(phenyl)methyl)-2-iodo-3,6-dimethylphenyl)-N-ethyl-N-methylformimidamide]	–	> 75	–	–
CCN(C)C=Nc1cc(C)c(C(C#N)c2cccc(C(F)(F)F)c2)cc1Cl (stereo not shown) [Compound 272, N′-(2-chloro-4-(cyano(3-(trifluoromethyl)phenyl)methyl)-5-methylphenyl)-N-ethyl-N-methylformimidamide hydrochloride]	> 75	–	–	–
CCN(C)C=Nc1cc(C)c(C(C#N)c2ccc(C(F)(F)F)cc2)cc1Cl (stereo not shown) [Compound 187, N′-(2-chloro-4-(cyano(4-(trifluoromethyl)phenyl)methyl)-5-methylphenyl)-N-ethyl-N-methylformimidamide]	–	–	> 80	–
CCN(C)C=Nc1cc(C)c(Cc2cccc(F)c2Cl)cc1Cl [Compound 125, N′-(2-chloro-4-(2-chloro-3-fluorobenzyl)-5-methylphenyl)-N-ethyl-N-methylformimidamide]	> 75	> 75	–	–
